Reference: paper PMC7340670, “Phase I study of TAS-115, a novel oral multi-kinase inhibitor, in patients with advanced solid tumors” (Investigational New Drugs, 2019)

Columns and labels:
advanced solid tumors = test: Antitumor effect by RECIST Version 1.1; type: in vivo, human
Method: (§1) The secondary objectives were to investigate the PK profile, safety, tolerability, antitumor activity, and pharmacodynamic profile of TAS-115. AEs were graded according to the CTCAE Version 4.03. Response was assessed by radiologic imaging at 6 and 12 weeks from the first dose, and every 12 weeks thereafter. Antitumor effect was evaluated by investigators using Response Evaluation Criteria in Solid Tumors (RECIST) Version 1.1 [17]. If a patient had bone lesions, evaluation was performed using bone scintigraphy and bone scan index (BSI) were calculated by BONENAVI® software (FUJIFILM Toyama Chemical, Co., Ltd., Japan). BSI response was defined as ≥30% reduction in BSI [18]. An exploratory objective was to assess changes in protein levels of soluble MET (sMET), VEGF, and soluble VEGFR2 (sVEGFR2) in plasma, and HGF in serum as pharmacodynamic markers.

bone lesions = test: Bone scintigraphy / bone scan index (BSI) response; type: in vivo, human
Method: as §1

soluble MET (sMET) = test: Pharmacodynamic marker: sMET in plasma; type: in vivo, human
Method: as §1
For pharmacodynamic analyses, blood samples were collected on Days 1 and 22 (before dosing, each) in part 1, and Days 1 (pre-dosing) and 19 (pre- and post 6 h) in part 2 and the expansion part. Patients provided written informed consent to provide blood samples for exploratory pharmacodynamics assessments.
The planned sample size was up to 90 patients, and it was not based on the formal calculation because of experimental phase I trial. For pharmacodynamics parameters, P values were calculated using the paired t-test for measured values from merged doses. The data cut-off date for the analyses presented in this report was August 19, 2018. This study is registered with Japan Pharmaceutical Information Center Clinical Trial registry, number JapicCTI-132333.

VEGF = test: Pharmacodynamic marker: VEGF in plasma; type: in vivo, human
Method: as §1
(§2) For pharmacodynamic analyses, blood samples were collected on Days 1 and 22 (before dosing, each) in part 1, and Days 1 (pre-dosing) and 19 (pre- and post 6 h) in part 2 and the expansion part. […]
(§3) The planned sample size was up to 90 patients, and it was not based on the formal calculation because of experimental phase I trial. For pharmacodynamics parameters, P values were calculated using the paired t-test for measured values from merged doses. […]

soluble VEGFR2 (sVEGFR2) = test: Pharmacodynamic marker: sVEGFR2 in plasma; type: in vivo, human
Method: as §1, §2, §3

recombinant MET = system: recombinant MET; parameters: method as in PMID 24140932; conditions: read-out: IC50 against recombinant MET; cited from earlier work
192-panel kinase = target: 192-panel kinase; parameters: method as in PMID 24140932; conditions: 192-panel kinase assay; read-out: IC50 for 53 (28%) kinases, including MET, AXL, c-kit, Src, PDGFR-alpha and –beta; cited from earlier work
[1] = system: tumor growth and abnormal bone remodeling; parameters: method as in PMID 24140932, PMID 27539855, PMID 27736957; conditions: cited from earlier work
patients = system: patients; parameters: method as in data on file; conditions: tablet formulation, ref data on file, cited from earlier work
[2] = system: osteoclast differentiation; parameters: method as in data on file; conditions: in vitro; ref data on file; cited from earlier work

CNC(=O)c1cc2c(Oc3ccc(NC(=S)NC(=O)Cc4ccccc4)cc3F)ccnc2cc1OC [TAS-115]
antitumor effect in a patient with bladder cancer with metastases (advanced solid tumors; 650 mg 5-on/2-off discontinued at week 7, after discontinuation without further antitumor treatment): the lung metastatic lesions disappeared
complete or partial response by RECIST evaluation (advanced solid tumors; all parts): no patients who showed complete or partial response
minor tumor shrinkage of target lesions (advanced solid tumors; patients determined as having progressive disease (PD)): four patients
antitumor effect in a patient with CRPC with multiple bone metastases (bone lesions; 650 mg 5-on/2-off): notable improvement was observed in the bone scan
antitumor effect in a patient with epithelioid sarcoma with multiple metastases (bone lesions; 650 mg 5-on/2-off, 6 weeks after the first administration): marked decrease of hot spots on bone scans and reduction in fluorodesoxyglucose uptake
BSI response rate (≥30% reduction in BSI) (bone lesions; patients with bone lesions, 14 of 25): 56.0%
change of sMET in plasma (soluble MET (sMET); Day 19, 6 h after administration, part 2 and expansion part, P = .0055): significant increase
change of sMET in plasma (soluble MET (sMET); Day 19 pre-dose, part 2 and expansion part, P = .0015): significant increase
change of sMET in plasma (soluble MET (sMET); Day 22 in part 1, P = .0031): significant increase
change of VEGF (VEGF; 6 h post-dose on Day 19 compared with pre-dose on Day 19, P = .0844): increase
marked alterations of VEGF from Day 1 (VEGF; in vivo): not observed
change of VEGFR2 (soluble VEGFR2 (sVEGFR2); 6 h post-dose on Day 19 compared with pre-dose on Day 19, P = .0204): decrease
marked alterations of sVEGFR2 from Day 1 (soluble VEGFR2 (sVEGFR2); in vivo): not observed
IC50 (recombinant MET): 32 nM
IC50 (192-panel kinase): < 1000 nM
antitumor effect in mouse xenograft models [1]: potent antitumor effect, inhibiting tumor growth and abnormal bone remodeling
absorption (patients): saturated between 100 and 1200 mg
dose-limiting toxicities (DLTs) (patients; ten patients, 100, 200, 400, 800, 1200 mg SID and 400 mg BID): no dose-limiting toxicities (DLTs) were observed
osteoclast differentiation induced by M-CSF and RANKL [2]: dose-dependent inhibition
